Values joined by “and” are separate entries in the source; they are usually repeats but may differ in a detail not shown here. Identical values can stand only once. “Also recorded” adds a separate entry of the source.
How the values were obtained:
KBV200 cells (KBV200细胞) [1] = conditions: KBV200 cell line; cited from earlier work
KBV200 cells (KBV200细胞) [2] = test: MTT cytotoxicity test: growth inhibition of KBV200 cells by single agents; type: cell-based, human; conditions: for IC50: Homo sapiens, KBv200; for inhibition rate (IR): 72 h
KBV200 cells (KBV200细胞) [3] = test: Reversal of resistance: MTT growth inhibition of KBV200 cells by agent combined with VCR; type: cell-based, human; conditions: for inhibition rate of KBV200 cells on combination with VCR: VCR concentration constant, three agent concentrations; for reversal of vincristine resistance / sensitisation of KBV200 to VCR: agent combined with VCR
[4] = test system: tumour multidrug resistance (肿瘤多药耐药); conditions: background; cited from earlier work
[5] = mass concentration in brackets beside the μmol/l value
[6] = single agent, 72 h (discussion)

In the case of COC(=O)C[C@](O)(CCCC(C)(C)O)C(=O)O[C@@H]1C(OC)=C[C@]23CCCN2CCc2cc4c(cc2[C@H]13)OCO4 [高三尖杉酯], the “resistance” value (KBV200 cells (KBV200细胞) [1]) is given as “耐药性较低”.
In the case of COc1cc([C@@H]2c3cc4c(cc3[C@@H](O[C@@H]3O[C@@H]5CO[C@@H](C)O[C@H]5[C@H](O)[C@H]3O)[C@H]3COC(=O)[C@H]23)OCO4)cc(OC)c1O [鬼臼乙叉甙], the “resistance” value (KBV200 cells (KBV200细胞) [1]) is listed as “耐药性较低”.
With C[C@@H]1CC[C@H]2[C@@H](C)C(=O)O[C@@H]3O[C@@]4(C)CC[C@@H]1[C@]32OO4 [青蒿素] the IC50 (KBV200 cells (KBV200细胞) [2]; [5]) was 48.6 µg/mL, the IC50 (KBV200 cells (KBV200细胞) [2]; [6]) was 172 µM and the “inhibition rate (IR)” value (KBV200 cells (KBV200细胞) [2]; artemisinin 2.50 μmol/l) was 1.140±2.85%. The “inhibition rate (IR)” value (KBV200 cells (KBV200细胞) [2]; artemisinin 5.00 μmol/l) was 2.690±4.36%, the “inhibition rate (IR)” value (KBV200 cells (KBV200细胞) [2]; artemisinin 20.0 μmol/l) was < 20% and 12.70±2.53% and the “inhibition rate (IR)” value (KBV200 cells (KBV200细胞) [2]; artemisinin 40.0 μmol/l) was < 20% and 19.22±5.59%. The “inhibition rate (IR)” value (KBV200 cells (KBV200细胞) [2]; artemisinin 80.0 μmol/l) was 28.47±2.73%, the “inhibition rate (IR)” value (KBV200 cells (KBV200细胞) [2]; artemisinin 160 μmol/l) was 43.57±5.20% and the inhibition rate (KBV200 cells (KBV200细胞) [2]; artemisinin above 172.4 umol/l) was greater than 50%. For the same compound, the “inhibitory effect on KBV200 cells” value (KBV200 cells (KBV200细胞) [2]; artemisinin below 2.50 umol/l) was “几乎无抑制效应”, the inhibition rate (KBV200 cells (KBV200细胞) [2]; artemisinin below 40 umol/l) was less than 20% and the inhibition rate (KBV200 cells (KBV200细胞) [2]; artemisinin below 80 umol/l) was less than 30%. The “inhibitory effect on KBV200 cells” value (KBV200 cells (KBV200细胞) [2]; artemisinin below 160 umol/l) was “抑制效应并不明显”, the “inhibitory effect on KBV200 cells” value (KBV200 cells (KBV200细胞) [2]; overall statement) was “大浓度具有一定的抑制KBV200细胞增殖效应; also recorded: 均有一定抑制效应” and the “inhibition rate of KBV200 cells on combination with VCR” value (KBV200 cells (KBV200细胞) [3]) was “明显提高”. The “reversal of vincristine resistance / sensitisation of KBV200 to VCR” value (KBV200 cells (KBV200细胞) [3]) was “可部分逆转; also recorded: 具有不同的逆转KBV200耐药效应”, the “reversal fold (RI)” value (KBV200 cells (KBV200细胞) [3]; artemisinin 10 umol/l with VCR, RI = IC50 VCR / IC50 VCR+agent) was 2.29 and the “reversal fold (RI)” value (KBV200 cells (KBV200细胞) [3]; artemisinin 20 umol/l with VCR) was 2.68. The “reversal fold (RI)” value (KBV200 cells (KBV200细胞) [3]; artemisinin 40 umol/l with VCR) was 3.0.
In the case of COc1cc2c(cc1OC)[C@@H]1Cc3ccc(OC)c(OC)c3CN1CC2 [左旋四氢马汀], the reversal fold [4] is listed as 8.2-13.0.
In the case of COc1ccc2cc1Oc1ccc(cc1)C[C@H]1c3cc(c(OC)cc3CCN1C)Oc1c(OC)c(OC)cc3c1[C@H](C2)N(C)CC3 [粉防已碱], the reversal fold [4] is listed as 8.2-13.0.
For C[C@H]1[C@H](OC(=O)CCC(=O)O)O[C@@H]2O[C@@]3(C)CC[C@H]4[C@H](C)CC[C@@H]1[C@@]24OO3 [青蒿琥酯], the “selective killing of KBV200 cells” value (KBV200 cells (KBV200细胞) [2]) was “有选择性杀伤作用”, the IC50 (KBV200 cells (KBV200细胞) [2]; [5]) was 0.563 µg/mL and the IC50 (KBV200 cells (KBV200细胞) [2]; [6]) was 1.47 µM. For the same compound, the “inhibition rate (IR)” value (KBV200 cells (KBV200细胞) [2]; artesunate 0.0156 μmol/l (so in the source)) was 9.520±4.910%, the “inhibition rate (IR)” value (KBV200 cells (KBV200细胞) [2]; artesunate 0.0390 μmol/l) was 1.640±3.520% and the inhibition rate (KBV200 cells (KBV200细胞) [2]; artesunate 0.156 umol/l) was less than 20%. The “inhibition rate (IR)” value (KBV200 cells (KBV200细胞) [2]; artesunate 0.3130 μmol/l) was < 20% and 18.41±4.420%, the “inhibition rate (IR)” value (KBV200 cells (KBV200细胞) [2]; artesunate 0.6250 μmol/l) was 35.25±10.52% and the “inhibition rate (IR)” value (KBV200 cells (KBV200细胞) [2]; artesunate 1.2500 μmol/l) was 47.56±1.250%. The “inhibition rate (IR)” value (KBV200 cells (KBV200细胞) [2]; artesunate 2.5000 μmol/l) was 57.67±1.110%, the “inhibition rate (IR)” value (KBV200 cells (KBV200细胞) [2]; artesunate 5.0000 μmol/l) was 69.85±6.900% and the “inhibition rate (IR)” value (KBV200 cells (KBV200细胞) [2]; artesunate 10.000 μmol/l) was 84.47±0.600%. The “inhibition rate (IR)” value (KBV200 cells (KBV200细胞) [2]; artesunate 20.000 μmol/l) was 95.02±6.560%, the inhibition rate (KBV200 cells (KBV200细胞) [2]; artesunate above 1.466 umol/l) was greater than 50% and the “inhibitory effect on KBV200 cells” value (KBV200 cells (KBV200细胞) [2]; artesunate below 0.039 umol/l) was “几乎无抑制效应”. The inhibition rate (KBV200 cells (KBV200细胞) [2]; artesunate below 0.313 umol/l) was less than 20%, the “inhibitory effect on KBV200 cells” value (KBV200 cells (KBV200细胞) [2]; artesunate below 1.25 umol/l) was “抑制效应并不明显” and the “inhibitory effect on tumour cells compared with another agent” value (KBV200 cells (KBV200细胞) [2]; artesunate versus artemisinin, dihydroartemisinin versus artesunate) was “比青蒿素显著增强”. The “inhibitory effect on KBV200 cells” value (KBV200 cells (KBV200细胞) [2]; overall statement) was “大浓度具有一定的抑制KBV200细胞增殖效应; also recorded: 均有一定抑制效应”, the “inhibition rate of KBV200 cells on combination with VCR” value (KBV200 cells (KBV200细胞) [3]) was “略有提高” and the “reversal of vincristine resistance / sensitisation of KBV200 to VCR” value (KBV200 cells (KBV200细胞) [3]) was “有一定的增敏作用”. The “reversal fold (RI)” value (KBV200 cells (KBV200细胞) [3]; artesunate 0.078 umol/l with VCR) was 1.19, the “reversal fold (RI)” value (KBV200 cells (KBV200细胞) [3]; artesunate 0.156 umol/l with VCR) was 1.79 and the “reversal fold (RI)” value (KBV200 cells (KBV200细胞) [3]; artesunate 0.313 umol/l with VCR) was 2.57.
In the case of CC(=O)O[C@H]1C(=O)[C@@]2(C)[C@H]([C@H](OC(=O)c3ccccc3)[C@]3(O)C[C@H](OC(=O)[C@H](O)[C@@H](NC(=O)c4ccccc4)c4ccccc4)C(C)=C1C3(C)C)[C@]1(OC(C)=O)CO[C@@H]1C[C@@H]2O [紫杉醇], the fold resistance (KBV200 cells (KBV200细胞) [1]) is listed as roughly 156 fold.
